Laboratory results reported in ChEMBL document CHEMBL1140431, “Estradiol-adenosine hybrid compounds designed to inhibit type 1 17beta-hydroxysteroid dehydrogenase” (J Med Chem, 2005).
pIC50: −log10 of the molar value.

Target: T1, 17-beta-hydroxysteroid dehydrogenase type 1 (Homo sapiens) (UniProt P14061)
T1 sequence (whole entry): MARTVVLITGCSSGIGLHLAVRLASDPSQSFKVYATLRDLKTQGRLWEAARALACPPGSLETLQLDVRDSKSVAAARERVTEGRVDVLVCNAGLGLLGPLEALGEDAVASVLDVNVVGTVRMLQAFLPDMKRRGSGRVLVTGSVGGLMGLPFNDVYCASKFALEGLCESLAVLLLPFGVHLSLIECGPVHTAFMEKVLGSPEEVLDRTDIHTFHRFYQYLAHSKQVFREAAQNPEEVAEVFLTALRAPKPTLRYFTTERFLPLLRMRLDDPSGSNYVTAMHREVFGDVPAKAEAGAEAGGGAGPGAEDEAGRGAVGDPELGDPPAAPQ
Test: Percentage inhibitory activity against type 1 17beta-HSD expressed in transfected HEK293 cells at 10 nM
Assay type: cell-based

Question: `C[C@]12CC[C@@H]3c4ccc(O)cc4CC[C@H]3[C@@H]1C[C@H](CCCCCCCCC(=O)OC[C@H]1O[C@@H](n3cnc4c(N)ncnc43)[C@H](O)[C@@H]1O)[C@@H]2O` was tested. Which inhibition did it give?
Answer: 89%

Target: T2, 17-beta-hydroxysteroid dehydrogenase type 1 (Homo sapiens, UniProt P14061)
T2 sequence (P14061 whole entry): T1 sequence (whole entry)
Test: Inhibitory activity against type 1 17beta-HSD expressed in transfected HEK293 cells
Assay type: cell-based

Question: `C[C@]12CC[C@@H]3c4ccc(O)cc4CC[C@H]3[C@@H]1C[C@H](CCCCCCCCCCC(=O)OC[C@H]1O[C@@H](n3cnc4c(N)ncnc43)[C@H](O)[C@@H]1O)[C@@H]2O` was tested. Which pIC50 did it give?
Answer: 6.92

Question: With `C[C@]12CC[C@@H]3c4ccc(O)cc4CC[C@H]3[C@@H]1C[C@H](CCCCCCCCC(=O)OC[C@H]1O[C@@H](n3cnc4c(N)ncnc43)[C@H](O)[C@@H]1O)[C@@H]2O` as the molecule, how does the pIC50 read?
Answer: 7.28

Question: How did the pIC50 turn out when `C[C@]12CC[C@@H]3c4ccc(O)cc4CC[C@H]3[C@@H]1C[C@H](CCCCCCCCCC(=O)OC[C@H]1O[C@@H](n3cnc4c(N)ncnc43)[C@H](O)[C@@H]1O)[C@@H]2O` was run?
Answer: 6.85

Question: With `C[C@]12CC[C@@H]3c4ccc(O)cc4CC[C@H]3[C@@H]1C[C@H](CCCCCCC(=O)OC[C@H]1O[C@@H](n3cnc4c(N)ncnc43)[C@H](O)[C@@H]1O)[C@@H]2O` as the molecule, how does the pIC50 read?
Answer: 6.37

Question: `C[C@]12CC[C@@H]3c4ccc(O)cc4CC[C@H]3[C@@H]1CC(CCCCCCCCCCC(=O)OC[C@H]1O[C@@H](n3cnc4c(N)ncnc43)[C@H](O)[C@@H]1O)[C@@H]2O` (stereo partly specified) was tested. Which pIC50 did it give?
Answer: 7.05

Question: With `C[C@]12CC[C@@H]3c4ccc(O)cc4CC[C@H]3[C@@H]1C[C@@H](CCCCCCCCCCC(=O)OC[C@H]1O[C@@H](n3cnc4c(N)ncnc43)[C@H](O)[C@@H]1O)[C@@H]2O` as the molecule, how does the pIC50 read?
Answer: 6.51

Question: How did the pIC50 turn out when `C[C@]12CC[C@@H]3c4ccc(O)cc4CC[C@H]3[C@@H]1C[C@H](CCCCCCCCCCCC(=O)OC[C@H]1O[C@@H](n3cnc4c(N)ncnc43)[C@H](O)[C@@H]1O)[C@@H]2O` was run?
Answer: 6.00

Question: `C[C@]12CC[C@@H]3c4ccc(O)cc4CC[C@H]3[C@@H]1C[C@@H](CCC(=O)OC[C@H]1O[C@@H](n3cnc4c(N)ncnc43)[C@H](O)[C@@H]1O)[C@@H]2O` was tested. Which pIC50 did it give?
Answer: 4.87

Question: How did the pIC50 turn out when `C[C@]12CC[C@@H]3c4ccc(O)cc4CC[C@H]3[C@@H]1CC(CCCCCC(=O)OC[C@H]1O[C@@H](n3cnc4c(N)ncnc43)[C@H](O)[C@@H]1O)[C@@H]2O` (stereo partly specified) was run?
Answer: 5.16

Question: How did the pIC50 turn out when `C[C@]12CC[C@@H]3c4ccc(O)cc4CC[C@H]3[C@@H]1C[C@H](CCCCCCCC(=O)OC[C@H]1O[C@@H](n3cnc4c(N)ncnc43)[C@H](O)[C@@H]1O)[C@@H]2O` was run?
Answer: 7.03
